Legend:
cytochrome C = cytochrome C concentration, SimpleStep ELISA; format: cell-based, human; conditions: 5 µM, 24 h, MCF-7
Method: (§1) To determine the effects of the new 4-thiazolidinone derivatives and the reference drug on the concentration of p53 and cytochrome C in MCF-7 cell lysates or supernatants after 24 h of treatment, highly sensitive SimpleStep ELISA (enzyme-linked immunosorbent assay) kits (Abcam, Cambridge, UK) were applied. The cells were collected and washed thrice with cold PBS and centrifuged at 1000× g for 5 min at 4 °C. Next, the cells were suspended in lysis buffer to acquire cell lysates. Concurrently, the supernatants, acquired after centrifugation, were frozen immediately at −80 °C. The standards, samples, and antibody cocktail were added to the appropriate microtiter plate wells, followed by 1 h incubation at room temperature. The content of microplate wells was extracted, and the wells were washed thrice. Afterwards, a TMB development solution was added to each well. The enzyme–substrate reaction was terminated with a stop solution. The change in color was assessed by UV-VIS Helios Gamma (Unicam/ThermoFisher Scientific Inc., Cleveland, OH, USA) at 450 ± 2 nm wavelength.
(§2) Both p53 and cytochrome C proteins play pivotal roles in the process of apoptosis. For this reason, concentrations of the mentioned proteins were measured in MCF-7 cells after 24 h treatment with the tested compounds (Les-6416, Les-6418, Les-6381, Les-6423, Les-6424) in concentrations of 5 µM.

p53 = p53 concentration, SimpleStep ELISA; format: cell-based, human; conditions: 5 µM, 24 h, MCF-7
Method: as §1, §2

EKVX = format: cell-based
SNB-19 = format: cell-based
SN12C = format: cell-based
HCC -2998 = format: cell-based
LOX IMVI = format: cell-based; conditions: MG_MID_60/value
ACHN = format: cell-based
PC-3 = format: cell-based
UO-31 = format: cell-based
SW-620 = format: cell-based
MDA-MB-231/ATCC = format: cell-based
SK-MEL-28 = format: cell-based
Renal Cancer = format: cell-based
BT-549 = format: cell-based
SK-MEL-2 = format: cell-based
OVCAR-3 = format: cell-based
HCT-116 = format: cell-based
[1] = system: Non-small Cell Lung Cancer; format: cell-based
M14 = format: cell-based
SK-OV-3 = format: cell-based
SF-539 = format: cell-based
Breast Cancer = format: cell-based
[2] = Homo sapiens, 48 h, read-out: LC50 (the source's name)

COc1cc(NC2=NC(=O)C(=Cc3ccc4cc[nH]c4c3)S2)cc(OC)c1OC [Les-6416, 5-((1H-Indol-6-yl)methylene)-2-((3,4,5-trimethoxyphenyl)amino)thiazol-4(5H)-one]
Concentration of cytochrome c (cytochrome C): 4.56 ± 0.85 ng/mL | Concentration of p53 (p53): 2.27 ± 0.55 ng/mL

COc1cc(NC2=NC(=O)C(=Cc3c[nH]c4ccccc34)S2)cc(OC)c1OC [Les-6418, 5-((1H-Indol-3-yl)methylene)-2-((3,4,5-trimethoxyphenyl)amino)thiazol-4(5H)-one]
TGI (EKVX; 48 h): 22.2 µM | GI50 (EKVX; Homo sapiens, 48 h): 8.02 µM | LC50 (EKVX; Homo sapiens, 48 h): 53.2 µM | SI (TGI) (EKVX; MG_MID_60/value): 0.84 | GI50 (SNB-19; Homo sapiens, SNB-19, 48 h): 6.6 µM | CC50 (SNB-19; Homo sapiens, SNB-19, 48 h, read-out: LC50 (the source's name)): 52.2 µM | TGI (SNB-19; SNB-19, 48 h): 21.2 µM | SI (TGI) (SNB-19; SNB-19, MG_MID_60/value): 0.88 | Growth % (SN12C; 10 μM, one dose, 48 h): −88.00% | TGI (SN12C; 48 h): 15.1 µM | GI50 (SN12C; Homo sapiens, 48 h): 3.85 µM | CC50 (SN12C; [2]): 43.6 µM | SI (TGI) (SN12C; MG_MID_60/value): 1.23 | TGI (HCC -2998; HCC -2998, 48 h): 20.7 µM | SI (TGI) (HCC -2998; HCC -2998, MG_MID_60/value): 0.90 | GI50 (HCC -2998; Homo sapiens, HCC -2998, 48 h): 6.36 µM | CC50 (HCC -2998; Homo sapiens, HCC -2998, 48 h, read-out: LC50 (the source's name)): 47.8 µM | SI (TGI) (LOX IMVI): 1.34 | TGI (ACHN; 48 h): 12.0 µM | GI50 (ACHN; Homo sapiens, 48 h): 3.2 µM | CC50 (ACHN; [2]): 36.1 µM | SI (TGI) (ACHN; MG_MID_60/value): 1.55 | GI50 (PC-3; Homo sapiens, PC-3, 48 h): 2.59 µM | CC50 (PC-3; Homo sapiens, PC-3, 48 h, read-out: LC50 (the source's name)): 94.2 µM | TGI (PC-3; PC-3, 48 h): 22.6 µM | SI (TGI) (PC-3; PC-3, MG_MID_60/value): 0.82 | GI50 (UO-31; Homo sapiens, UO-31, 48 h): 3.43 µM | CC50 (UO-31; Homo sapiens, UO-31, 48 h, read-out: LC50 (the source's name)): 38.8 µM | TGI (UO-31; UO-31, 48 h): 13.7 µM | SI (TGI) (UO-31; UO-31, MG_MID_60/value): 1.36 | GI50 (SW-620; Homo sapiens, SW-620, 48 h): 3.1 µM | CC50 (SW-620; Homo sapiens, SW-620, 48 h, read-out: LC50 (the source's name)): 85 µM | TGI (SW-620; SW-620, 48 h): 21.8 µM | SI (TGI) (SW-620; SW-620, MG_MID_60/value): 0.85 | TGI (MDA-MB-231/ATCC; 48 h): 18.8 µM | GI50 (MDA-MB-231/ATCC; Homo sapiens, 48 h): 4.77 µM | CC50 (MDA-MB-231/ATCC; [2]): 55.2 µM | SI (TGI) (MDA-MB-231/ATCC; MG_MID_60/value): 0.99 | GI50 (SK-MEL-28; Homo sapiens, SK-MEL-28, 48 h): 6.07 µM | CC50 (SK-MEL-28; Homo sapiens, SK-MEL-28, 48 h, read-out: LC50 (the source's name)): 49.9 µM | TGI (SK-MEL-28; SK-MEL-28, 48 h): 21.0 µM | SI (TGI) (SK-MEL-28; SK-MEL-28, MG_MID_60/value): 0.89 | GI50 (Renal Cancer; Homo sapiens, Renal Cancer subpanel mean, read-out: MG_MID GI50): 4.22 µM | CC50 (Renal Cancer; Homo sapiens, Renal Cancer subpanel mean, read-out: MG_MID LC50): 44.6 µM | MG_MID TGI (Renal Cancer; Renal Cancer subpanel mean): 14.5 µM | SI (MG_MID TGI) (Renal Cancer; Renal Cancer subpanel, MG_MID_60/value): 1.28 | TGI (BT-549; BT-549, 48 h): 10.7 µM | SI (TGI) (BT-549; BT-549, MG_MID_60/value): 1.74 | GI50 (BT-549; Homo sapiens, BT-549, 48 h): 0.81 µM | CC50 (BT-549; Homo sapiens, BT-549, 48 h, read-out: LC50 (the source's name)): 39.2 µM | GI50 (SK-MEL-2; Homo sapiens, SK-MEL-2, 48 h): 1.45 µM | CC50 (SK-MEL-2; Homo sapiens, SK-MEL-2, 48 h, read-out: LC50 (the source's name)): 43.1 µM | TGI (SK-MEL-2; SK-MEL-2, 48 h): 12.2 µM | SI (TGI) (SK-MEL-2; SK-MEL-2, MG_MID_60/value): 1.52 | GI50 (OVCAR-3; Homo sapiens, OVCAR-3, 48 h): 0.517 µM | CC50 (OVCAR-3; Homo sapiens, OVCAR-3, 48 h, read-out: LC50 (the source's name)): 34 µM | Growth % (OVCAR-3; OVCAR-3, 10 μM, one dose, 48 h): 76.96% | TGI (OVCAR-3; OVCAR-3, 48 h): 5.32 µM | SI (TGI) (OVCAR-3; OVCAR-3, MG_MID_60/value): 3.50 | TGI (HCT-116; HCT-116, 48 h): 10.2 µM | SI (TGI) (HCT-116; HCT-116, MG_MID_60/value): 1.82 | GI50 (HCT-116; Homo sapiens, HCT-116, 48 h): 1.1 µM | CC50 (HCT-116; Homo sapiens, HCT-116, 48 h, read-out: LC50 (the source's name)): 50.6 µM | GI50 ([1]; Homo sapiens, Non-small Cell Lung Cancer subpanel mean, read-out: MG_MID GI50): 3.66 µM | CC50 ([1]; Homo sapiens, Non-small Cell Lung Cancer subpanel mean, read-out: MG_MID LC50): 61.1 µM | MG_MID TGI ([1]; Non-small Cell Lung Cancer subpanel mean): 15.6 µM | SI (MG_MID TGI) ([1]; Non-small Cell Lung Cancer subpanel, MG_MID_60/value): 1.19 | GI50 (M14; Homo sapiens, M14, 48 h): 2.02 µM | CC50 (M14; Homo sapiens, M14, 48 h, read-out: LC50 (the source's name)): 55.6 µM | TGI (M14; M14, 48 h): 15.9 µM | SI (TGI) (M14; M14, MG_MID_60/value): 1.17 | GI50 (SK-OV-3; Homo sapiens, SK-OV-3, 48 h): 2.56 µM | CC50 (SK-OV-3; Homo sapiens, SK-OV-3, 48 h, read-out: LC50 (the source's name)): 38.5 µM | TGI (SK-OV-3; SK-OV-3, 48 h): 10.3 µM | SI (TGI) (SK-OV-3; SK-OV-3, MG_MID_60/value): 1.81 | GI50 (SF-539; Homo sapiens, SF-539, 48 h): 2.49 µM | CC50 (SF-539; Homo sapiens, SF-539, 48 h, read-out: LC50 (the source's name)): 35.5 µM | Growth % (SF-539; SF-539, 10 μM, one dose, 48 h): −85.30% | TGI (SF-539; SF-539, 48 h): 9.95 µM | SI (TGI) (SF-539; SF-539, MG_MID_60/value): 1.87 | MG_MID TGI (Breast Cancer; Breast Cancer subpanel mean): 13.2 µM | SI (MG_MID TGI) (Breast Cancer; Breast Cancer subpanel, MG_MID_60/value): 1.41 | GI50 (Breast Cancer; Homo sapiens, Breast Cancer subpanel mean, read-out: MG_MID GI50): 2.32 µM | CC50 (Breast Cancer; Homo sapiens, Breast Cancer subpanel mean, read-out: MG_MID LC50): 55.8 µM

Source: publication PMC12190436, “5-Ene-2-arylaminothiazol-4(5H)-ones Induce Apoptosis in Breast Cancer Cells” (Cells, 2025)
